The results in this text go back to US8273774B2, “Phenoxypyridinylamide compounds” (AstraZeneca AB, priority 2008, dated 2012).

recombinant Human Phosphodiesterase B2 (PDE4B2), sequence (Q07343 1-564 isoform Q07343-2): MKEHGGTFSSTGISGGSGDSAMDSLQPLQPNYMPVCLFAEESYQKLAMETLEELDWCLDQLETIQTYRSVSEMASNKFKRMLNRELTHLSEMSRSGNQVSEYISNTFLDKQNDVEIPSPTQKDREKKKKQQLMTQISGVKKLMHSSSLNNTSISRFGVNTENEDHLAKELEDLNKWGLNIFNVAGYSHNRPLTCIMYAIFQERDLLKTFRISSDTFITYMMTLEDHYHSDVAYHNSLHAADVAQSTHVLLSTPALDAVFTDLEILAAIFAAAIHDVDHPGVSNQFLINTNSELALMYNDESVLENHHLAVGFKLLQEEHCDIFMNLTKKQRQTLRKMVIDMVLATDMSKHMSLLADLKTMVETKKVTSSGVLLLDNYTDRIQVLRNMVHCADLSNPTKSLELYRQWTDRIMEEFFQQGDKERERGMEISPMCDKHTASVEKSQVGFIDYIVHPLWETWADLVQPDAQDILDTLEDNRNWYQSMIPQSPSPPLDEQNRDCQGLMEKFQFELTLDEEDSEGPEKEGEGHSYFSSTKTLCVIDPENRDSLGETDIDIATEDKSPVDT

The test deals with recombinant Human Phosphodiesterase B2 (PDE4B2) (Homo sapiens, UniProt Q07343). Description: Human Phosphodiesterase B2 Radiometric Assay. The class given is biochemical. To be noted: 0.1 μg/mL recombinant PDE4B2; preincubated at 30 C for 30 min; [3H]cyclic AMP 8 nM, stopped after 20 min; yttrium silicate SPA beads; read-out: PDE4B2 pIC50 (converted). In outline:
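SPA read-out: product 5′AMP binds yttrium silicate beads (added with 18 mM ZnSO4 after 20 min) in preference to [3H]cAMP substrate, given at 8 nM final.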
For the compound `Cc1nc(C(=O)N[C@H]2CC[C@@H](NC(=O)c3cc(F)cnc3Oc3cccc(-c4cccc(CCCN5CCNCC5)c4)c3)CC2)cs1` [Example 131, N-((1s,4s)-4-(5-fluoro-2-(3′-(3-(piperazin-1-yl)propyl)biphenyl-3-yloxy)nicotinamido)cyclohexyl)-2-methylthiazole-4-carboxamide], the IC50 is 0.126 nM.
Regarding `Cc1cc(C(=O)N[C@H]2CC[C@@H](NC(=O)c3cc(F)cnc3Oc3cccc(-c4cccc(CN5C[C@@H](C)N[C@@H](C)C5)c4O)c3)CC2)nn1C` [Example 78, N-((1s,4s)-4-(1,5-dimethyl-1H-pyrazole-3-carboxamido)cyclohexyl)-2-(3′-(((3R,5S)-3,5-dimethylpiperazin-1-yl)methyl)-2′-hydroxybiphenyl-3-yloxy)-5-fluoronicotinamide], the IC50 was 0.0794 nM.
For `Cn1ccc(C(=O)N[C@H]2CC[C@@H](NC(=O)c3cc(F)cnc3Oc3cccc(-c4ccc(O)cc4CN4CCOCC4)c3)CC2)n1` [Example 49, 5-fluoro-2-(4′-hydroxy-2′-(morpholinomethyl)biphenyl-3-yloxy)-N-((1s,4s)-4-(1-methyl-1H-pyrazole-3-carboxamido)cyclohexyl)nicotinamide], the IC50 is 0.0251 nM.
In the case of `Cn1ccc(C(=O)N[C@H]2CC[C@@H](NC(=O)c3cc(F)cnc3Oc3cccc(-c4ccc(CN5CCSCC5)cc4CN4CCOCC4)c3)CC2)n1` [Example 199, 5-fluoro-N-((1s,4s)-4-(1-methyl-1H-pyrazole-3-carboxamido)cyclo-hexyl)-2-(2′-(morpholinomethyl)-4′-(thiomorpholinomethyl)biphenyl-3-yloxy)nicotinamide] it was 0.02 nM; in that of `C[C@@H]1CN(Cc2ccc(-c3cccc(Oc4ncc(F)cc4C(=O)N[C@H]4CC[C@@H](NC(=O)c5cccc6[nH]cnc56)CC4)c3)c(CN3CCOC[C@@H]3C)c2)C[C@H](C)N1` [Example 195, N-((1s,4s)-4-(2-(4′-(((3S,5R)-3,5-dimethylpiperazin-1-yl)methyl)-2′-(((S)-3-methylmorpholino)methyl)biphenyl-3-yloxy)-5-fluoronicotmamido)cyclohexyl)-1H-benzo[d]imidazole-4-carboxamide], 0.02 nM; in that of `Cc1cccc(C(=O)N[C@H]2CC[C@@H](NC(=O)c3cc(F)cnc3Oc3cccc(-c4ccc(O)cc4CN(C)C)c3)CC2)n1` [Example 10, N-((1s,4s)-4-(2-(2′-((dimethylamino)methyl)-4′-hydroxybiphenyl-3-yloxy)-5-fluoronicotinamido)cyclohexyl)-6-methylpicolinamide], 0.0316 nM.
In the case of `O=C(N[C@H]1CC[C@@H](NC(=O)c2cc(F)cnc2Oc2cccc(-c3ccc(O)cc3CN3CCOCC3)c2)CC1)c1ccccc1O` [Example 38, 5-fluoro-2-(4′-hydroxy-2′-(morpholinomethyl)biphenyl-3-yloxy)-N-((1s,4s)-4-(2-hydroxybenzamido)cyclohexyl)nicotinamide] it was 0.0398 nM; in that of `CN(C)Cc1cc(O)ccc1-c1cccc(Oc2ncc(F)cc2C(=O)N[C@H]2CC[C@@H](NC(=O)c3csc(C(C)(C)C)n3)CC2)c1` [Example 43, 2-tert-butyl-N-((1s,4s)-4-(2-(2′-((dimethylamino)methyl)-4′-hydroxybiphenyl-3-yloxy)-5-fluoronicotinamido)cyclohexyl)thiazole-4-carboxamide], 0.126 nM; in that of `Cc1nc(C(=O)N[C@H]2CC[C@@H](NC(=O)c3cc(F)cnc3Oc3cccc(-c4ccc(O)cc4CN4CCOCC4)c3)CC2)cs1` [Example 34, N-((1s,4s)-4-(5-fluoro-2-(4′-hydroxy-2′-(morpholinomethyl)biphenyl-3-yloxy)nicotinamido)cyclohexyl)-2-methylthiazole-4-carboxamide], 0.0251 nM.
For `CN(C)C1(C(=O)NC2CCC(NC(=O)c3cc(F)cnc3Oc3cccc(-c4ccc(O)cc4CN4CCOCC4)c3)CC2)CC1` (stereo not drawn) [Example 17, N-((1s,4s)-4-(1-(dimethylamino)cyclopropanecarboxamido)cyclohexyl)-5-fluoro-2-(4′-hydroxy-2′-(morpholinomethyl)biphenyl-3-yloxy)nicotinamide], the IC50 was 1.58 nM.
Regarding `Cc1csc(C(=O)N[C@H]2CC[C@@H](NC(=O)c3cc(F)cnc3Oc3cccc(-c4ccc(CCCN5CCNCC5)cc4)c3)CC2)n1` [Example 148, N-((1s,4s)-4-(5-fluoro-2-(4′-(3-(piperazin-1-yl)propyl)biphenyl-3-yloxy)nicotinamido)cyclohexyl)-4-methylthiazole-2-carboxamide], the IC50 was 0.0398 nM.
Take `Cc1cc(C(=O)N[C@H]2CC[C@@H](NC(=O)c3cc(F)cnc3Oc3cccc(-c4ccc(O)cc4CN4CCCOCC4)c3)CC2)nn1C` [Example 19, 2-(2′-((1,4-oxazepan-4-yl)methyl)-4′-hydroxybiphenyl-3-yloxy)-N-((1s,4s)-4-(1,5-dimethyl-1H-pyrazole-3-carboxamido)cyclohexyl)-5-fluoronicotinamide]: the IC50 was 0.01 nM.
Take `Cc1ccc(O)c(CN[C@H]2CC[C@@H](NC(=O)c3cc(F)cnc3Oc3cccc(-c4ccc(O)cc4CN4CCOCC4)c3)CC2)c1` [Example 7, 5-fluoro-2-(4′-hydroxy-2′-(morpholinomethyl)biphenyl-3-yloxy)-N-((1s,4s)-4-(2-hydroxy-5-methylbenzylamino)cyclohexyl)nicotinamide]: the IC50 is 6.31 nM.
Take `C[C@H]1COCCN1Cc1cc(CN2CCCN(CCO)CC2)ccc1-c1cccc(Oc2ncc(F)cc2C(=O)N[C@H]2CC[C@@H](NC(=O)c3cccc4[nH]cnc34)CC2)c1` [Example 180, N-((1s,4s)-4-(5-Fluoro-2-(4′-((4-(2-hydroxyethyl)-1,4-diazepan-1-yl)methyl)-2′-(((S)-3-methylmorpholino)methyl)biphenyl-3-yloxy)nicotinamido)cyclohexyl)-1H-benzo[d]imidazole-4-carboxamide]: the IC50 is 0.0158 nM.
Consider `C[C@@H]1CN(Cc2cc(-c3cccc(Oc4ncc(F)cc4C(=O)N[C@H]4CC[C@@H](NC(=O)c5cc(C(F)(F)F)n(C)n5)CC4)c3)ccc2O)C[C@H](C)N1` [Example 92, 2-(3′-(((3S,5R)-3,5-dimethylpiperazin-1-yl)methyl)-4′-hydroxybiphenyl-3-yloxy)-5-fluoro-N-((1s,4s)-4-(1-methyl-5-(trifluoromethyl)-1H-pyrazole-3-carboxamido)cyclohexyl)nicotinamide], for which the IC50 was 0.126 nM.
In the case of `O=C(N[C@H]1CC[C@@H](NC(=O)c2cc(F)cnc2Oc2cccc(-c3ccc(O)cc3CN3CCOCC3)c2)CC1)c1cccc(O)c1` [Example 32, 5-fluoro-2-(4′-hydroxy-2′-(morpholinomethyl)biphenyl-3-yloxy)-N-((1s,4s)-4-(3-hydroxybenzamido)cyclohexyl)nicotinamide] it was 0.316 nM; in that of `O=C(N[C@H]1CC[C@@H](NC(=O)c2cc(F)cnc2Oc2cccc(-c3ccc(CCCN4CCNCC4)cc3)c2)CC1)c1cc2n(n1)CCCC2` [Example 118, N-((1s,4s)-4-(5-fluoro-2-(4′-(3-(piperazin-1-yl)propyl)biphenyl-3-yloxy)nicotinamido)cyclohexyl)-4,5,6,7-tetrahydropyrazolo[1,5-a]pyridine-2-carboxamide], 0.0398 nM.
With `Cc1cccc2nc(C(=O)N[C@H]3CC[C@@H](NC(=O)c4cc(F)cnc4Oc4cccc(-c5ccc(CN(C)C)cc5)c4)CC3)cn12` [Example 47, N-((1s,4s)-4-(2-(4′-((dimethylamino)methyl)biphenyl-3-yloxy)-5-fluoronicotinamido)cyclohexyl)-5-methylimidazo[1,2-a]pyridine-2-carboxamide], the IC50 is 0.794 nM.
Consider `C[C@@H]1CN(Cc2cc(-c3cccc(Oc4ncc(F)cc4C(=O)N[C@H]4CC[C@@H](NC(=O)c5cn6c(n5)CCCC6)CC4)c3)ccc2O)C[C@H](C)N1` [Example 91, N-((1s,4s)-4-(2-(3′-(((3S,5R)-3,5-dimethylpiperazin-1-yl)methyl)-4′-hydroxybiphenyl-3-yloxy)-5-fluoronicotinamido)cyclohexyl)-5,6,7,8-tetrahydroimidazo[1,2-a]pyridine-2-carboxamide], for which the IC50 was 0.251 nM.
Take `CN1CCCN(Cc2cc(O)ccc2-c2cccc(Oc3ncc(F)cc3C(=O)N[C@H]3CC[C@@H](NC(=O)c4ccc5ccccc5n4)CC3)c2)CC1` [Example 27, N-((1s,4s)-4-(5-fluoro-2-(4′-hydroxy-2′-((4-methyl-1,4-diazepan-1-yl)methyl)biphenyl-3-yloxy)nicotinamido)cyclohexyl)quinoline-2-carboxamide]: the IC50 was 0.631 nM.
Consider `Cc1nc(C(=O)N[C@H]2CC[C@@H](NC(=O)c3cc(F)cnc3Oc3cccc(-c4ccc(CCN5CCCN(C)CC5)cc4)c3)CC2)cs1` [Example 87, N-((1s,4s)-4-(5-fluoro-2-(4′-(2-(4-methyl-1,4-diazepan-1-yl)ethyl)biphenyl-3-yloxy)nicotinamido)cyclohexyl)-2-methylthiazole-4-carboxamide], for which the IC50 was 0.0251 nM.
As to `Cc1cc(C(=O)N[C@H]2CC[C@@H](NC(=O)c3cc(F)cnc3Oc3cccc(-c4cccc(CCN5CCNCC5)c4)c3)CC2)nn1C` [Example 102, N-((1s,4s)-4-(1,5-dimethyl-1H-pyrazole-3-carboxamido)cyclohexyl)-5-fluoro-2-(3′-(2-(piperazin-1-yl)ethyl)biphenyl-3-yloxy)nicotinamide], the IC50 was 0.0398 nM.
As to `Cc1nc(C(=O)N[C@H]2CC[C@@H](NC(=O)c3cc(F)cnc3Oc3cccc(-c4ccc(CCN5CCC(N6CCCC6)CC5)cc4)c3)CC2)cs1` [Example 112, N-((1s,4s)-4-(5-fluoro-2-(4′-(2-(4-(pyrrolidin-1-yl)piperidin-1-yl)ethyl)biphenyl-3-yloxy)nicotinamido)cyclohexyl)-2-methylthiazole-4-carboxamide], the IC50 was 0.0398 nM.
In the case of `C[C@@H]1CN(CCc2ccc(-c3cccc(Oc4ncc(F)cc4C(=O)N[C@H]4CC[C@@H](NC(=O)c5ccn(C)n5)CC4)c3)cc2)C[C@H](C)N1` [Example 163, 2-(4′-(2-((3S,5R)-3,5-Dimethylpiperazin-1-yl)ethyl)biphenyl-3-yloxy)-5-fluoro-N-((1s,4s)-4-(1-methyl-1H-pyrazole-3-carboxamido)cyclohexyl)nicotinamide], the IC50 is 0.0398 nM.
